Reference: patent US11178869B2, “Microbiocidal quinoline (thio)carboxamide derivatives” (priority 2017, dated 2021)
Like-named read-outs stand apart in the source and are kept apart here.

Columns and labels:
[1] = system: Glomerella lagenarium (Colletotrichum lagenarium); assay: Glomerella lagenarium (Colletotrichum lagenarium) / liquid culture (anthracnose); assay type: cell-based; conditions: Colletotrichum orbiculare, read-out: disease control
[2] = system: Botryotinia fuckeliana (Botrytis cinerea); assay: Botryotinia fuckeliana (Botrytis cinerea) / liquid culture (gray mould); assay type: cell-based; conditions: 72 h, 200 ppm, compared to untreated control, growth inhibition photometrically 3-4 days after application, read-out: disease control
[3] = system: Fusarium culmorum; assay: microbe, parasite or virus in culture; assay type: cell-based; conditions: read-out: disease control
[4] = system: Magnaporthe grisea (Pyricularia oryzae); assay: microbe, parasite or virus in culture; assay type: cell-based; conditions: read-out: control of Magnaporthe grisea
[5] = system: Fusarium culmorum; assay: whole plant or invertebrate; assay type: in vivo, Fusarium culmorum on wheat spikelets cv. Monsun; conditions: in Triticum aestivum, 144 h, read-out: control of Fusarium culmorum
[6] = system: Monographella nivalis (Microdochium nivale); assay: Monographella nivalis (Microdochium nivale) / liquid culture (foot rot cereals); assay type: cell-based; conditions: 200 ppm, compared to untreated control, growth inhibition photometrically 4-5 days after application, read-out: disease control
[7] = 200 ppm, compared to untreated control, growth inhibition photometrically 3-4 days after application

C#CCC(C)(CC(C)C)NC(=O)c1cnc2c(F)cccc2c1 (centres unmarked) [Compound E-2, 8-fluoro-N-(1-isobutyl-1-methyl-but-3-ynyl)quinoline-3-carboxamide]
≥ 80%: inhibition of growth at 200 ppm [1, 7] | inhibition of growth at 200 ppm [2] | inhibition of growth at 200 ppm [3]

CCC(C)(C#Cc1ccccc1C)NC(=O)c1cc2cccc(F)c2nc1C (centres unmarked) [Compound F-14, N-[1-ethyl-1-methyl-3-(o-tolyl)prop-2-ynyl]-8-fluoro-2-methyl-quinoline-3-carboxamide]
≥ 80%: inhibition of growth at 20 ppm [4] | inhibition of growth at 200 ppm [1, 7] | pest or weed control at 200 ppm [5] | inhibition of growth at 200 ppm [2] | inhibition of growth at 200 ppm [3]

CCC(C)(C#Cc1ccccc1)NC(=O)c1cc2cccc(F)c2nc1C (centres unmarked) [Compound F-16, N-(1-ethyl-1-methyl-3-phenyl-prop-2-ynyl)-8-fluoro-2-methyl-quinoline-3-carboxamide]
≥ 80%: inhibition of growth at 20 ppm [4] | inhibition of growth at 200 ppm [1, 7] | pest or weed control at 200 ppm [5] | inhibition of growth at 200 ppm [6] | inhibition of growth at 200 ppm [2] | inhibition of growth at 200 ppm [3]

CC(C)(C#Cc1ccccc1F)NC(=O)c1cnc2c(F)cccc2c1 [Compound F-18, 8-fluoro-N-[3-(2-fluorophenyl)-1,1-dimethyl-prop-2-ynyl]quinoline-3-carboxamide]
≥ 80%: inhibition of growth at 200 ppm [1, 7] | inhibition of growth at 200 ppm [6] | inhibition of growth at 200 ppm [2] | inhibition of growth at 200 ppm [3]

Cc1ccc(C#N)cc1C#CC(C)(C)NC(=O)c1cnc2c(F)cccc2c1 [Compound F-19, N-[3-(5-cyano-2-methyl-phenyl)-1,1-dimethyl-prop-2-ynyl]-8-fluoro-quinoline-3-carboxamide]
≥ 80%: inhibition of growth at 200 ppm [1, 7] | inhibition of growth at 200 ppm [6] | inhibition of growth at 200 ppm [2] | inhibition of growth at 200 ppm [3]

CC(C)(C#Cc1ccc(F)c(F)c1)NC(=O)c1cnc2c(F)cccc2c1 [Compound F-20, N-[3-(3,4-difluorophenyl)-1,1-dimethyl-prop-2-ynyl]-8-fluoro-quinoline-3-carboxamide]
≥ 80%: inhibition of growth at 200 ppm [1, 7] | inhibition of growth at 200 ppm [6] | inhibition of growth at 200 ppm [2] | inhibition of growth at 200 ppm [3]

Cc1ccc(C)c(C#CC(C)(C)NC(=O)c2cnc3c(F)cccc3c2)c1 [Compound F-22, N-[3-(2,5-dimethylphenyl)-1,1-dimethyl-prop-2-ynyl]-8-fluoro-quinoline-3-carboxamide]
≥ 80%: inhibition of growth at 200 ppm [1, 7] | inhibition of growth at 200 ppm [2] | inhibition of growth at 200 ppm [3]

Cc1cccc(C#CC(C)(C)NC(=O)c2cnc3c(F)cccc3c2)c1C [Compound F-26, N-[3-(2,3-dimethylphenyl)-1,1-dimethyl-prop-2-ynyl]-8-fluoro-quinoline-3-carboxamide]
≥ 80%: inhibition of growth at 200 ppm [1, 7] | inhibition of growth at 200 ppm [6] | inhibition of growth at 200 ppm [2] | inhibition of growth at 200 ppm [3]

CC(C)(C#Cc1ccc(F)cc1)NC(=O)c1cnc2c(F)cccc2c1 [Compound F-27, 8-fluoro-N-[3-(4-fluorophenyl)-1,1-dimethyl-prop-2-ynyl]quinoline-3-carboxamide]
≥ 80%: inhibition of growth at 200 ppm [1, 7] | inhibition of growth at 200 ppm [6] | inhibition of growth at 200 ppm [2] | inhibition of growth at 200 ppm [3]

COc1ccc(C#CC(C)(C)NC(=O)c2cnc3c(F)cccc3c2)cc1 [Compound F-28, 8-fluoro-N-[3-(4-methoxyphenyl)-1,1-dimethyl-prop-2-ynyl]quinoline-3-carboxamide]
≥ 80%: inhibition of growth at 200 ppm [1, 7] | pest or weed control at 200 ppm [5] | inhibition of growth at 200 ppm [6] | inhibition of growth at 200 ppm [2] | inhibition of growth at 200 ppm [3]

Cc1cc(C)cc(C#CC(C)(C)NC(=O)c2cnc3c(F)cccc3c2)c1 [Compound F-30, N-[3-(3,5-dimethylphenyl)-1,1-dimethyl-prop-2-ynyl]-8-fluoro-quinoline-3-carboxamide]
≥ 80%: inhibition of growth at 200 ppm [1, 7] | inhibition of growth at 200 ppm [6] | inhibition of growth at 200 ppm [2] | inhibition of growth at 200 ppm [3]

Cc1ccc(C#CC(C)(C)NC(=O)c2cnc3c(F)cccc3c2)cc1C [Compound F-32, N-[3-(3,4-dimethylphenyl)-1,1-dimethyl-prop-2-ynyl]-8-fluoro-quinoline-3-carboxamide]
≥ 80%: inhibition of growth at 200 ppm [1, 7] | inhibition of growth at 200 ppm [6] | inhibition of growth at 200 ppm [2] | inhibition of growth at 200 ppm [3]

Cc1ccc(C#CC(C)(C)NC(=O)c2cnc3c(F)cccc3c2)c(C)c1 [Compound F-33, N-[3-(2,4-dimethylphenyl)-1,1-dimethyl-prop-2-ynyl]-8-fluoro-quinoline-3-carboxamide]
≥ 80%: inhibition of growth at 200 ppm [1, 7] | inhibition of growth at 200 ppm [6] | inhibition of growth at 200 ppm [2] | inhibition of growth at 200 ppm [3]

Cc1cc(C#N)ccc1C#CC(C)(C)NC(=O)c1cnc2c(F)cccc2c1 [Compound F-34, N-[3-(4-cyano-2-methyl-phenyl)-1,1-dimethyl-prop-2-ynyl]-8-fluoro-quinoline-3-carboxamide]
≥ 80%: inhibition of growth at 200 ppm [6] | inhibition of growth at 200 ppm [2] | inhibition of growth at 200 ppm [3]

CC(C)(C#Cc1cccc(C#N)c1)NC(=O)c1cnc2c(F)cccc2c1 [Compound F-36, N-[3-(3-cyanophenyl)-1,1-dimethyl-prop-2-ynyl]-8-fluoro-quinoline-3-carboxamide]
≥ 80%: inhibition of growth at 200 ppm [6] | inhibition of growth at 200 ppm [2] | inhibition of growth at 200 ppm [3]

COc1ccccc1C#CC(C)(C)NC(=O)c1cnc2c(F)cccc2c1 [Compound F-37, 8-fluoro-N-[3-(2-methoxyphenyl)-1,1-dimethyl-prop-2-ynyl]quinoline-3-carboxamide]
≥ 80%: inhibition of growth at 200 ppm [1, 7] | inhibition of growth at 200 ppm [6] | inhibition of growth at 200 ppm [2] | inhibition of growth at 200 ppm [3]

COc1cc(C#CC(C)(C)NC(=O)c2cnc3c(F)cccc3c2)ccc1Cl [Compound F-38, N-[3-(4-chloro-3-methoxy-phenyl)-1,1-dimethyl-prop-2-ynyl]-8-fluoro-quinoline-3-carboxamide]
≥ 80%: inhibition of growth at 200 ppm [1, 7] | inhibition of growth at 200 ppm [6] | inhibition of growth at 200 ppm [2] | inhibition of growth at 200 ppm [3]

Cc1cccc(C#CC(C)(C)NC(=O)c2cnc3c(F)cccc3c2)c1 [Compound F-39, N-[1,1-dimethyl-3-(m-tolyl)prop-2-ynyl]-8-fluoro-quinoline-3-carboxamide]
≥ 80%: inhibition of growth at 200 ppm [1, 7] | pest or weed control at 200 ppm [5] | inhibition of growth at 200 ppm [6] | inhibition of growth at 200 ppm [2] | inhibition of growth at 200 ppm [3]

CC(C)(C#Cc1cc(F)cc(F)c1)NC(=O)c1cnc2c(F)cccc2c1 [Compound F-40, N-[3-(3,5-difluorophenyl)-1,1-dimethyl-prop-2-ynyl]-8-fluoro-quinoline-3-carboxamide]
≥ 80%: inhibition of growth at 200 ppm [1, 7] | pest or weed control at 200 ppm [5] | inhibition of growth at 200 ppm [6] | inhibition of growth at 200 ppm [2] | inhibition of growth at 200 ppm [3]

CC(C)(C#Cc1ccccc1C#N)NC(=O)c1cnc2c(F)cccc2c1 [Compound F-41, N-[3-(2-cyanophenyl)-1,1-dimethyl-prop-2-ynyl]-8-fluoro-quinoline-3-carboxamide]
≥ 80%: inhibition of growth at 200 ppm [1, 7] | inhibition of growth at 200 ppm [6] | inhibition of growth at 200 ppm [2] | inhibition of growth at 200 ppm [3]

CC(C)(C#Cc1ccc(C(F)(F)F)cc1)NC(=O)c1cnc2c(F)cccc2c1 [Compound F-42, N-[1,1-dimethyl-3-[4-(trifluoromethyl)phenyl]prop-2-ynyl]-8-fluoro-quinoline-3-carboxamide]
≥ 80%: inhibition of growth at 200 ppm [1, 7] | inhibition of growth at 200 ppm [6] | inhibition of growth at 200 ppm [2] | inhibition of growth at 200 ppm [3]

COc1ccc(C(F)(F)F)cc1C#CC(C)(C)NC(=O)c1cnc2c(F)cccc2c1 [Compound F-43, 8-fluoro-N-[3-[2-methoxy-5-(trifluoromethyl)phenyl]-1,1-dimethyl-prop-2-ynyl]quinoline-3-carboxamide]
≥ 80%: inhibition of growth at 200 ppm [1, 7] | inhibition of growth at 200 ppm [2] | inhibition of growth at 200 ppm [3]

Cc1ccc(F)c(C#CC(C)(C)NC(=O)c2cnc3c(F)cccc3c2)c1 [Compound F-45, 8-fluoro-N-[3-(2-fluoro-5-methyl-phenyl)-1,1-dimethyl-prop-2-ynyl]quinoline-3-carboxamide]
≥ 80%: inhibition of growth at 200 ppm [1, 7] | pest or weed control at 200 ppm [5] | inhibition of growth at 200 ppm [6] | inhibition of growth at 200 ppm [2] | inhibition of growth at 200 ppm [3]

CC#CC(C)(C)NC(=O)c1cnc2c(F)cccc2c1 [Compound F-53, N-(1,1-dimethylbut-2-ynyl)-8-fluoro-quinoline-3-carboxamide]
≥ 80%: inhibition of growth at 200 ppm [1] | inhibition of growth at 200 ppm [3]

C[C@@](CC#CC1CC1)(CC(F)(F)F)NC(=O)c1cnc2c(F)cccc2c1 [Compound G-1, N-[(1R)-4-cyclopropyl-1-methyl-1-(2,2,2-trifluoroethyl)but-3-ynyl]-8-fluoro-quinoline-3-carboxamide]
≥ 80%: inhibition of growth at 200 ppm [6] | inhibition of growth at 200 ppm [2] | inhibition of growth at 200 ppm [3]

C[C@](CC#CC1CC1)(CC(F)(F)F)NC(=O)c1cnc2c(F)cccc2c1 [Compound G-2, N-[(1S)-4-cyclopropyl-1-methyl-1-(2,2,2-trifluoroethyl)but-3-ynyl]-8-fluoro-quinoline-3-carboxamide]
≥ 80%: inhibition of growth at 200 ppm [2] | inhibition of growth at 200 ppm [3]
